According to paper PMC10266789 (The Journal of Clinical Investigation, 2023):

How the values were obtained:
recombinant human SIRT1 = target: T1, recombinant human SIRT1 (Homo sapiens, UniProt Q96EB6); experiment: SIRT deacylase assay, deacetylation of Ac-H3K9WW peptide, mass spectrometry; type: biochemical; details: Figure 1C; n = 3
T1 construct: purified, recombinant SIRT2^2–389, SIRT1^1–747, or SIRT3^1–400 protein (GenScript); purchased GenScript
T1 sequence (Q96EB6 1-747): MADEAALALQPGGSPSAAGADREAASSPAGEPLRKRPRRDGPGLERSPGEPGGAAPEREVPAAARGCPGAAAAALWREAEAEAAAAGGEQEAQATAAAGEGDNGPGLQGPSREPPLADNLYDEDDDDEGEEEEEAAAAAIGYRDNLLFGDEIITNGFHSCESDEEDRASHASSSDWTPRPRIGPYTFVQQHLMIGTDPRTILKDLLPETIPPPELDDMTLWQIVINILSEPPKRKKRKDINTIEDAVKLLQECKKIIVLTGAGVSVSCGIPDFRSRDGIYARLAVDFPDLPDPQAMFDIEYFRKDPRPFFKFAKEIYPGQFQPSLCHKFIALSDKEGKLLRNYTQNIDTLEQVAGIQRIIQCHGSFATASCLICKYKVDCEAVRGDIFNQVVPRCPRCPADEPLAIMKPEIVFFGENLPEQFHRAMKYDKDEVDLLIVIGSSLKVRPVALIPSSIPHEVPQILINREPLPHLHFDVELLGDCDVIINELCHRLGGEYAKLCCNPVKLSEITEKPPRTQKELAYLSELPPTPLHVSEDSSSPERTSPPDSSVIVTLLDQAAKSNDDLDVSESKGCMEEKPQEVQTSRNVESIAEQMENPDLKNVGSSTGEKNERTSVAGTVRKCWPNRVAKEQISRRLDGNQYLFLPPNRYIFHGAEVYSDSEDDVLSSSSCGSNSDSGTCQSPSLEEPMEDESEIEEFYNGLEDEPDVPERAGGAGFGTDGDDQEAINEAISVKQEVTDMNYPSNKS

recombinant human SIRT2 = target: T2, recombinant human SIRT2 (Homo sapiens, UniProt Q8IXJ6); experiment: SIRT2 thermal stability (thermal shift) assay; type: binding
T2 sequence (Q8IXJ6 39-352 limits assumed): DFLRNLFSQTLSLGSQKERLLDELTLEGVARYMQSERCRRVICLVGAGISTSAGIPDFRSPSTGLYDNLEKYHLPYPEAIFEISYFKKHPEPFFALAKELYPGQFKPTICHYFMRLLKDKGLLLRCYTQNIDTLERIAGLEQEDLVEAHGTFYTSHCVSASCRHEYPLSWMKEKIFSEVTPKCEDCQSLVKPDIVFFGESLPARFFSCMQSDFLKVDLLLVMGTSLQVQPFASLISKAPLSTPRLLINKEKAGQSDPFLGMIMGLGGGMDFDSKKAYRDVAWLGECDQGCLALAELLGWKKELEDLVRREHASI
Method: SIRT2 underwent thermal denaturation with a midpoint transition temperature (Tm) of approximately 48°C.
Thermal melt data were collected using custom instrumentation (Fluorescence Innovations), with either 405 nm or 532 nm laser excitation and fluorescence lifetime emission to measure total well fluorescence and fluorescence lifetime as a function of temperature. Data were treated as previously described ([37]) to determine the midpoint transition temperature, Tm.

[1] = test system: Hepatitis B virus (genotype D, subtype ayw); experiment: microbe, parasite or virus in culture; details: Hepatocyte, read-out: IC50, Hepatitis B
[2] = test system: acetylated α-tubulin in HepG2 cells; experiment: Western blot of acetylated α-tubulin in HepG2 cells; type: cell-based, human; details: 24 hours, plus 1 µM trichostatin A
Method: Supplemental Figure 1. […] (A) HepG2 cells were treated with FLS- […]
determined by western blot. Total a-tubulin was monitored as a control. (B) MDA-MB-231 cells or (C) MRC-5 fibroblasts were treated with drug for 72h and c-Myc was monitored by western blot with b-actin as a control. Western blots are representative of three independent experiments.
(1 picture or pasted object on this page, not shown here)

[3] = test system: Zika virus (strain DAK41525); details: Zika/human HFF
[4] = test system: Hepatitis B virus (genotype D, subtype ayw); details: Hepatitis B/human PHH
[5] = test system: Influenza A (strain A/California/07/2009)
HCMV DNA = experiment: Intracellular HCMV DNA accumulation by qPCR in MRC-5; type: cell-based, human cytomegalovirus; details: 72 hours
[6] = test system: Betacoronavirus 1 (strain OC43); details: HCoV-OC43/human MRC-5
[7] = test system: SARS-CoV-2 (strain USA-WA1/2020); details: SARS-CoV-2/human Calu3

SMILES: Cc1cn(-c2ccc3c(c2)CN(c2ncc(Cc4ccc(-n5cccn5)cc4)s2)CC3)c(C)n1 [FLS-359, 7-(2,4-dimethyl-1H-imidazol-1-yl)-2-(5-{[4-(1H-pyrazol-1-yl)phenyl]methyl}-1,3-thiazol-2-yl)-1,2,3,4-tetrahydroisoquinoline]
- IC50 (recombinant human SIRT1): > 100 µM
- increase of SIRT2 Tm (recombinant human SIRT2; 6.25 μM): 1.4 °C
- increase of SIRT2 Tm (recombinant human SIRT2; 12.5 μM): 2.0 °C
- IC50 [1]: 4.8 µM
- increase of acetylated α-tubulin level [2]: about 3 factor
- SI CC50/IC50 [3]: 104.0
- SI CC50/IC50 [4]: >2.1
- SI CC50/IC50 ([5]; Influenza A/human dNHBE): >83.3
- IC90, Influenza A (column headed IC50, footnote C: IC90) ([5]; human dNHBE): 1.2^C μM
- intracellular viral DNA accumulation (HCMV DNA; 3 IU/cell): compromised
- reduction in intracellular viral DNA levels (HCMV DNA; Figure 8B): approximately 3 fold
- SI CC50/IC50 [6]: >30.1
- SI CC50/IC50 [7]: 52.7
